PubChem BioAssay AID2060489 (Molecular Pharmacology Branch, DTP, NCI, 2025)

System: 922993-354-T-J3-PDC complex spheroids, viability
Assay: Anticancer human tumor 922993-354-T-J3-PDC patient-derived endometrial carcinoma cell line growth inhibition [GQUAD]
Details: for IC50: curve of first compound; for viability, T/C: stronger effect = lower value
Excerpt: DNA G-quadruplex Stabilizer Agents in Combinations in Complex Spheroids
A high-throughput screen of multi-cell type tumor spheroids was designed to identify active combinations of DNA G-quadruplex stabilizer agents and targeted small molecules. Complex spheroids include a stromal component modeled by human endothelial cells (HUVEC) and fibroblasts modeled by human mesenchymal stem cells (MSCs). The concentration ranges selected for each drug and investigational agent were based upon clinically achievable concentrations if the clinical Cmax of the agent was known.
Compounds. The drugs and investigational agents: pidnarulex (CX-5461; NSC782164), APTO-253 (NSC789042), BRACO-19 (NSC847499), peposertib (NSC802822), ceralasertib (NSC780249), elimusertib (NSC800525), camonsertib (NSC841442), AZD-1390 (NSC803789), olaparib (NSC753686), talazoparib (NSC767125), ART-558 (NSC835418), sotorasib (NSC818433), MRTX-1133 (NSC836407), SN-38 (NSC673596), topotecan (NSC609699), etoposide (NSC141540), doxorubicin (NSC123127), gemcitabine (NSC613327), 5-fluorouracil (NSC19893), paclitaxel (NSC125973), vemurafenib (NSC761431), panobinostat (NSC761190), R-306465 (JNJ-16241199; NSC773264), adavosertib (NSC754352), TP-3654 (NSC805149), carboplatin (NSC241240), KSQ-4279 (NSC840948), and staurosporine (NSC755774) were obtained from the National Cancer Institute (NCI) Developmental Therapeutics Program Chemical Repository (34). The FDA-approved anticancer drug set is available from the NCI Developmental Therapeutics Program. […] The stock solutions were prepared in dimethyl sulfoxide (DMSO, Sigma-Aldrich, St. Louis, MO, cat. D2650) at 800-fold the tested concentration and stored at -70 degrees C prior to their use. All drugs and investigational agents were tested over a range starting from a high concentration at or near the clinical Cmax and decreasing in half-log increments. If the clinical Cmax for an agent had not been determined, the highest concentration tested was 10 microM.
2.3 Cell Culture. All cells were maintained in an incubator at 37 degrees C and 5% CO2 with 95% humidity. The PDC lines were cultured according to standard operating procedures established by the NCI PDMR. All PDCs were thawed and cultured in Matrigel-coated flasks prepared with a working solution of 1X Ham's F-12 nutrient mix, without supplementation (Invitrogen, cat. 11765054), 100 U/mL penicillin-streptomycin (Invitrogen, cat. 15140122), and 2.5% Matrigel (Corning Inc., cat. 354248) for the first three passages. The 857933-349-R-J2-PDC line was cultured in 6C/Colon 1B media, which includes advanced DMEM/F-12 (Thermo Fisher Scientific, cat. 12634028), 10 mM HEPES (Thermo Fisher Scientific, cat. 15630080), 1X GlutaMAX supplement (Thermo Fisher Scientific, cat. 35050061), 0.1 mg/mL primocin (InvivoGen, cat. ant-pm-2), 10% defined fetal bovine serum, heat inactivated (HyClone Laboratories Inc., cat. SH30070.03HI), 50% L-WRN conditioned media (ATCC, cat. CRL-3276), 1.25 mM N-Acetyl-L-cysteine (Sigma-Aldrich, cat. A9165), 10 mM nicotinamide (Sigma-Aldrich, cat. N0636), 1X B-27 supplement (Thermo Fisher Scientific, cat. 17504044), 1X N-2 supplement (Thermo Fisher Scientific, cat. 17502048), 10 microM Y-27632 dihydrochloride (Tocris Bioscience, cat. 1254), and 50 ng/mL human EGF recombinant protein (Thermo Fisher Scientific, cat. PHG0311). The 485176-168-R4-J1-PDC line was cultured in Panc media, which includes all 6C/Colon 1B media components plus 100 ng/mL human FGF-10 (Thermo Fisher Scientific, cat. 100-26), 500 nM SB-431542 (Selleckchem, cat. S1067), and gastrin (Tocris, cat. 3006).
[…]

[1] = second compound 0.0316 µM, first compound 0.0316 µM
[2] = second compound 0.0316 µM, first compound 0.316 µM
[3] = second compound 0.1 µM, first compound 0.0316 µM
[4] = second compound 0.1 µM, first compound 0.316 µM
[5] = second compound 0.316 µM, first compound 0.0316 µM
[6] = second compound 0.316 µM, first compound 0.316 µM
[7] = second compound 1 µM, first compound 0.0316 µM
[8] = second compound 1 µM, first compound 0.316 µM
[9] = second compound 3.16 µM, first compound 0.0316 µM
[10] = second compound 3.16 µM, first compound 0.316 µM
[11] = second compound 10 µM, first compound 0.0316 µM
[12] = second compound 10 µM, first compound 0.316 µM
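Note: spheroids exposed to compounds for seven days.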
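Throughout, for viability, T/C: 100% = DMSO vehicle control viability.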

CCc1c2c(nc3ccc(O)cc13)-c1cc3c(c(=O)n1C2)COC(=O)[C@]3(O)CC + CN(C)c1ccc(Nc2c3ccc(NC(=O)CCN4CCCC4)cc3nc3cc(NC(=O)CCN4CCCC4)ccc23)cc1
IC50 (second compound 0.0316 µM): 6.5 nM
IC50 (second compound 0.1 µM): 6.99 nM
IC50 (second compound 0.316 µM): 6.11 nM
IC50 (second compound 1 µM): 6.51 nM
IC50 (second compound 3.16 µM): 6.83 nM
IC50 (second compound 10 µM): 8.98 nM
viability, T/C (second compound 0.0316 µM, first compound 0.000999 µM): 99.2%
viability, T/C (second compound 0.0316 µM, first compound 0.00316 µM): 78.4%
viability, T/C (second compound 0.0316 µM, first compound 0.00999 µM): 34.1%
viability, T/C [1]: 10.4%
viability, T/C (second compound 0.0316 µM, first compound 0.0999 µM): 10.1%
viability, T/C [2]: 20.1%
viability, T/C (second compound 0.1 µM, first compound 0.000999 µM): 96.4%
viability, T/C (second compound 0.1 µM, first compound 0.00316 µM): 94.1%
viability, T/C (second compound 0.1 µM, first compound 0.00999 µM): 30%
viability, T/C [3]: 7.58%
viability, T/C (second compound 0.1 µM, first compound 0.0999 µM): 12%
viability, T/C [4]: 16.8%
viability, T/C (second compound 0.316 µM, first compound 0.000999 µM): 90.6%
viability, T/C (second compound 0.316 µM, first compound 0.00316 µM): 74.3%
viability, T/C (second compound 0.316 µM, first compound 0.00999 µM): 32.5%
viability, T/C [5]: 9.44%
viability, T/C (second compound 0.316 µM, first compound 0.0999 µM): 12.3%
viability, T/C [6]: 13.8%
viability, T/C (second compound 1 µM, first compound 0.000999 µM): 96%
viability, T/C (second compound 1 µM, first compound 0.00316 µM): 77.5%
viability, T/C (second compound 1 µM, first compound 0.00999 µM): 34.4%
viability, T/C [7]: 12.8%
viability, T/C (second compound 1 µM, first compound 0.0999 µM): 11.8%
viability, T/C [8]: 17.7%
viability, T/C (second compound 3.16 µM, first compound 0.000999 µM): 96.7%
viability, T/C (second compound 3.16 µM, first compound 0.00316 µM): 79.8%
viability, T/C (second compound 3.16 µM, first compound 0.00999 µM): 36.3%
viability, T/C [9]: 11.4%
viability, T/C (second compound 3.16 µM, first compound 0.0999 µM): 12.9%
viability, T/C [10]: 20.6%
viability, T/C (second compound 10 µM, first compound 0.000999 µM): 111%
viability, T/C (second compound 10 µM, first compound 0.00316 µM): 89.1%
viability, T/C (second compound 10 µM, first compound 0.00999 µM): 49.3%
viability, T/C [11]: 14.4%
viability, T/C (second compound 10 µM, first compound 0.0999 µM): 17.4%
viability, T/C [12]: 23.3%

Cc1cccc(N(C)C(=O)C2C(O)CCN2c2nc(C)cc(C(F)(F)F)c2C#N)c1 (centres undefined) + CN(C)c1ccc(Nc2c3ccc(NC(=O)CCN4CCCC4)cc3nc3cc(NC(=O)CCN4CCCC4)ccc23)cc1
IC50 (second compound 0.0316 µM): > 10000 nM
IC50 (second compound 0.1 µM): > 10000 nM
IC50 (second compound 0.316 µM): > 10000 nM
IC50 (second compound 1 µM): > 10000 nM
IC50 (second compound 3.16 µM): > 10000 nM
IC50 (second compound 10 µM): > 10000 nM
viability, T/C [1]: 80.8%
viability, T/C (second compound 0.0316 µM, first compound 0.1 µM): 89.6%
viability, T/C [2]: 80.6%
viability, T/C (second compound 0.0316 µM, first compound 1 µM): 92.5%
viability, T/C (second compound 0.0316 µM, first compound 3.16 µM): 90.1%
viability, T/C (second compound 0.0316 µM, first compound 10 µM): 95.4%
viability, T/C [3]: 89.6%
viability, T/C (second compound 0.1 µM, first compound 0.1 µM): 111%
viability, T/C [4]: 87.5%
viability, T/C (second compound 0.1 µM, first compound 1 µM): 103%
viability, T/C (second compound 0.1 µM, first compound 3.16 µM): 94.9%
viability, T/C (second compound 0.1 µM, first compound 10 µM): 67.6%
viability, T/C [5]: 90.4%
viability, T/C (second compound 0.316 µM, first compound 0.1 µM): 105%
viability, T/C [6]: 95.5%
viability, T/C (second compound 0.316 µM, first compound 1 µM): 91.8%
viability, T/C (second compound 0.316 µM, first compound 3.16 µM): 83.2%
viability, T/C (second compound 0.316 µM, first compound 10 µM): 69.6%
viability, T/C [7]: 85.3%
viability, T/C (second compound 1 µM, first compound 0.1 µM): 82.7%
viability, T/C [8]: 101%
viability, T/C (second compound 1 µM, first compound 1 µM): 93.6%
viability, T/C (second compound 1 µM, first compound 3.16 µM): 97.1%
viability, T/C (second compound 1 µM, first compound 10 µM): 82.1%
viability, T/C [9]: 96.8%
viability, T/C (second compound 3.16 µM, first compound 0.1 µM): 102%
viability, T/C [10]: 104%
viability, T/C (second compound 3.16 µM, first compound 1 µM): 106%
viability, T/C (second compound 3.16 µM, first compound 3.16 µM): 99.3%
viability, T/C (second compound 3.16 µM, first compound 10 µM): 91.5%
viability, T/C [11]: 105%
viability, T/C (second compound 10 µM, first compound 0.1 µM): 133%
viability, T/C [12]: 113%
viability, T/C (second compound 10 µM, first compound 1 µM): 106%
viability, T/C (second compound 10 µM, first compound 3.16 µM): 103%
viability, T/C (second compound 10 µM, first compound 10 µM): 80.3%
